The compounds below were run against Alpha-1B adrenergic receptor (Mesocricetus auratus) (UniProt P18841) (assay: Compound was tested for binding affinity against cloned Alpha-1B adrenergic receptor from hamster smooth muscle using radioligand ([3H]prazosin) binding assay).
Chain of Alpha-1B adrenergic receptor (Mesocricetus auratus) (P18841 whole entry, looked up): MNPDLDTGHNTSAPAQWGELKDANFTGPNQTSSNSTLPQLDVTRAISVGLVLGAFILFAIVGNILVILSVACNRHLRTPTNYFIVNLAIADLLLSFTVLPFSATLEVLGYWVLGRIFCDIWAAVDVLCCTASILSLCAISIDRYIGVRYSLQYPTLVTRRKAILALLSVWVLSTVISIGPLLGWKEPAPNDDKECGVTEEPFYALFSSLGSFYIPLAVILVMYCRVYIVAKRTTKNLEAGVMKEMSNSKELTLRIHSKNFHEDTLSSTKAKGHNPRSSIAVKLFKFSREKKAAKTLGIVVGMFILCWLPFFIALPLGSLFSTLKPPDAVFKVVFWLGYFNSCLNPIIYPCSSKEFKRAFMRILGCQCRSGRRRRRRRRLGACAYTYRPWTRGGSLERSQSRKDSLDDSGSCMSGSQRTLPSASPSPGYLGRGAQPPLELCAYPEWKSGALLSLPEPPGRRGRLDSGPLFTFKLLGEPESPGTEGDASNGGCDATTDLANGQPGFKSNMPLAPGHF

SMILES	Ki [pM]
COc1cc2nc(N3CCN(C(=O)c4ccco4)[C@@H]4CCCC[C@@H]43)nc(N)c2cc1OC	692
COc1cc2nc(N3CCN(C(=O)c4ccco4)C4CCCCC43)nc(N)c2cc1OC (stereo not drawn) [(Cyclazosin)[4-(4-Amino-6,7-dimethoxy-quinazolin-2-yl)-octahydro-quinoxalin-1-yl]-furan-2-yl-methanone]	589
COc1cc2nc(N3CCN(C(=O)c4ccco4)[C@H]4CCCC[C@H]43)nc(N)c2cc1OC [CYCLAZOSIN]	309

Reference: BindingDB's records for doi:10.1021/jm960510x (University of Camerino, 1996)
